Measured values taken from article PMC7195640, “New Synthetic 3-Benzoyl-5-Hydroxy-2H-Chromen-2-One (LM-031) Inhibits Polyglutamine Aggregation and Promotes Neurite Outgrowth through Enhancement of CREB, NRF2, and Reduction of AMPKα in SCA17 Cell Models” (Oxidative Medicine and Cellular Longevity, 2020).

How the values were obtained:
[1] = MTT cytotoxicity assay in uninduced TBP/Q79-GFP SH-SY5Y cells; format: cell-based; settings: human
Procedure: (§1) Compound cytotoxicity was assessed by colorimetric assay measuring cell metabolic activity. Briefly, TBP/Q79-GFP 293 and SH-SY5Y cells were seeded on a 48-well plate (5 × 10^4/well), grown for 20 h, and treated with licochalcone A or LM compounds (0.1–100 μM). After one day, cell viability was measured based on reduction of 3,(4,5-dimethylthiazol-2-yl)-2,5-diphenyltetrazolium bromide (MTT), and the absorbance of the insoluble purple formazan product at OD 570 nm was read by a FLx800 fluorescence microplate reader (Bio-Tek, Winooski, VT, USA).

[2] = MTT cytotoxicity assay in uninduced TBP/Q79-GFP 293 cells; format: cell-based; settings: human
Procedure: as §1

NRF2 = assay: Western blot of NRF2 in TBP/Q79-GFP SH-SY5Y cells; format: cell-based, Human; settings: 100 nM; for NRF2 protein level, uninduced = 100%: induced SH-SY5Y cells, untreated induced 72%; for NRF2 level, scrambled shRNA uninduced = 100%: scrambled shRNA-infected induced SH-SY5Y cells, untreated 54%
Procedure: (§2) Total proteins from TBP/Q79-GFP SH-SY5Y cells were obtained using a lysis buffer containing 50 mM Tris-HCl (pH 8.0), 150 mM NaCl, 1 mM EDTA (pH 8.0), 1 mM EGTA (pH 8.0), 0.1% SDS, 0.5% sodium deoxycholate, 1% Triton X-100, and a protease inhibitor cocktail (Sigma-Aldrich). After quantitation using a protein assay kit (Bio-Rad, Hercules, CA, USA), proteins (20 μg) were separated on 10−12% SDS-polyacrylamide gel electrophoresis and blotted onto polyvinylidene difluoride (PVDF) membranes (Sigma-Aldrich) by reverse electrophoresis. After blocking, the membrane was probed with CREB (1 : 1000; Santa Cruz Biotechnology, Santa Cruz, CA, USA), pCREB (S133) (1 : 1000; Santa Cruz Biotechnology), BCL2 (1 : 500; BioVision, Milpitas, CA, USA), GADD45B (1 : 1000; Abcam, Cambridge, MA, USA), BAX (1 : 500; BioVision), NRF2 (1 : 500; Santa Cruz Biotechnology), AMPKα (1 : 1000; Cell Signaling, Danvers, MA, USA), pAMPKα (T172) (1 : 1000; Cell Signaling), GAPDH (1 : 1000) (MDBio Inc., Taipei, Taiwan), or β-actin (1 : 5000; Millipore, Billerica, MA, USA) primary antibody at 4°C overnight. The immune complexes were detected using a horseradish peroxidase-conjugated goat anti-mouse or goat anti-rabbit IgG antibody (1 : 10000; GeneTex, Irvive, CA, USA) and a chemiluminescent substrate (Millipore).
(§3) To knockdown the expression of NRF2 and CREB in TBP/Q79-GFP SH-SY5Y cells, lentiviruses with short hairpin RNA (shRNA) targeting NRF2 (TRCN0000007558), CREB (TRCN0000226466), and a negative control scrambled (TRC2.Void) were obtained from the National RNAi Core Facility, Institute of Molecular Biology/Genomic Research Center, Academia Sinica, Taipei, Taiwan. On day 1, cells were plated on 6-well plates (8 × 10^5/well for protein analysis) or 24-well plates (2 × 10^4/well for neurite outgrowth analysis) in the presence of retinoic acid as described. On day 2, the cells were infected with lentivirus (multiplicity of infection: 3) in the presence of polybrene (8 μg/mL; Sigma-Aldrich) to increase infectivity. On day 3, the cells were pretreated with LM-031 or licochalcone A (100 nM) for 8 h; induction of TBP/Q79-GFP expression followed. On day 9, the cells were collected for NRF2 and CREB protein analysis or stained with Hoechst 33342 and analyzed for aggregation and neurite outgrowth as described.

GADD45B = assay: Western blot of GADD45B in TBP/Q79-GFP SH-SY5Y cells; format: cell-based, Human; settings: 100 nM, induced SH-SY5Y cells; untreated induced 66–70%
Procedure: as §2

AMPKα, pAMPKα (T172) = assay: Western blot of AMPKα and pAMPKα in TBP/Q79-GFP SH-SY5Y cells; format: cell-based, Human; settings: induced SH-SY5Y cells
Procedure: as §2
(§4) AICAR (5-aminoimidazole-4-carboxamide 1-β-D-ribofuranoside) (Sigma-Aldrich), an analog of adenosine monophosphate (AMP), was used to stimulate AMP-dependent protein kinase (AMPK) activity. TBP/Q79-GFP SH-SY5Y cells were plated on 6-well or 24-well plates in the presence of retinoic acid as described. On day 2, the cells were pretreated with LM-031 or licochalcone A (100 nM) for 4 h; AICAR (0.1 mM) treatment and TBP/Q79-GFP induction followed. On day 8, the cells were collected for AMPKα and pAMPKα protein analysis or stained with Hoechst 33342 and analyzed for aggregation and neurite outgrowth as described.

[3] = tested on: TBP/Q79-GFP-expressing SH-SY5Y cells; assay: TBP/Q79-GFP SH-SY5Y aggregation assay (also with shRNA knockdown or AICAR); format: cell-based, Human; settings: for polyQ aggregation / aggregation: SH-SY5Y cells; for reduction of aggregation: differentiated TBP/Q79-GFP SH-SY5Y cells, vs untreated
Procedure: (§5) On day 1, 2 × 10^4 of SH-SY5Y TBP/Q79-GFP cells were seeded on a 24-well plate with retinoic acid (10 μM; Sigma-Aldrich) added to induce neuronal differentiation. On day 2, the cells were treated with LM-031 or licochalcone A (100 nM) for 8 h and TBP/Q79-GFP expression was induced as described. On day 8, cells were stained with Hoechst 33342 (0.1 μg/mL) and the aggregation percentage and neurite outgrowth were assessed by high-content analysis as described. The morphologic differentiation of TBP/Q79-GFP-expressing cells was analyzed by using the Neurite Outgrowth Application Module (Molecular Devices).
as §3, §4

BAX = assay: Western blot of BAX in TBP/Q79-GFP SH-SY5Y cells; format: cell-based, Human; settings: 100 nM, induced SH-SY5Y cells; untreated induced 156%
Procedure: as §2

[4] = tested on: TBP/Q79-GFP-expressing 293 cells; assay: TBP/Q79 293 aggregation assay (high-content analysis of GFP fluorescence); format: cell-based, Human
Procedure: GFP fluorescence was evaluated to reflect TBP aggregation in TBP/Q79-GFP-expressing 293 cells. Briefly, cells were plated on 96-well (2 × 10^4/well) dishes, grown for 24 h and treated with different concentrations of licochalcone A or LM compounds (0.1 nM−100 μM) or a positive control suberoylanilide hydroxamic acid (SAHA, 100 nM) (Cayman Chemical, Ann Arbor, MI, USA). After 8 h, doxycycline (10 μg/mL) was added to the cells for 6 days to induce TBP/Q79-GFP expression. In addition, oxaliplatin (5 μM) (Sigma-Aldrich, St Louis, MO, USA) was included for TBP/Q79-GFP aggregate accumulation via blocking cell-cycle progression. On the eighth day, the cells were stained with Hoechst 33342 (0.1 μg/mL; Sigma-Aldrich) for 30 min, and cell images were automatically recorded (excitation/emission wavelengths of 482/536 nm for GFP and 377/447 nm for Hoechst 33342) by using an ImageXpress Micro Confocal High-Content Imaging System (Molecular Devices, Sunnyvale, CA, USA). Aggregation was determined by a Transfluor technology based on GFP fluorescence intensity. To quantify aggregation, the relative aggregation level in untreated cells was set as 100%. Aggregation was measured in wells containing ≥80% viable cells.

CREB, pCREB (S133) = assay: Western blot of CREB and pCREB in TBP/Q79-GFP SH-SY5Y cells; format: cell-based, Human; settings: 100 nM; for pCREB/CREB (phosphor/total ratio), uninduced = 100%: induced SH-SY5Y cells, untreated induced 85%; for pCREB level, scrambled shRNA uninduced = 100%: scrambled shRNA-infected induced SH-SY5Y cells, untreated 81%
Procedure: as §2, §3

[5] = tested on: TBP/Q79-GFP-expressing SH-SY5Y cells; assay: TBP/Q79-GFP SH-SY5Y neurite outgrowth assay (also with shRNA knockdown or AICAR); format: cell-based, Human; settings: for increased neurite outgrowth: vs untreated
Procedure: as §5, §3, §4

[6] = 100 nM compound + AICAR 0.1 mM, AICAR alone 5.2%
[7] = 100 nM, no AICAR, no treatment 4.6%
[8] = 100 nM compound + AICAR 0.1 mM, SH-SY5Y cells, AICAR alone 17.2 μm
[9] = 100 nM, NRF2 shRNA, SH-SY5Y cells
[10] = 100 nM, differentiated TBP/Q79-GFP SH-SY5Y cells
[11] = 100 nM, differentiated TBP/Q79-GFP SH-SY5Y cells, untreated 21.1 μm
[12] = 100 nM, no AICAR, SH-SY5Y cells, no treatment 19.6 μm
[13] = 100 nM, scrambled shRNA, SH-SY5Y cells, no treatment 21.6 μm

COc1cccc(/C=C/C(=O)c2ccc(O)cc2)c1O [LM-026]
IC50 at 24 h [1]: 58 µM | IC50 at 24 h [2]: 53 µM

O=C(c1ccccc1)c1cc2c(O)cccc2oc1=O [LM-031, 3-benzoyl-5-hydroxy-2H-chromen-2-one]
NRF2 protein level, uninduced = 100% (NRF2): 96–100% | NRF2 level, scrambled shRNA uninduced = 100% (NRF2): 84–93% | GADD45B protein level, uninduced = 100% (GADD45B): 104–105% | pAMPKα level, uninduced = 100% (AMPKα, pAMPKα (T172); 100 nM compound + AICAR 0.1 mM, AICAR alone 160%): 96% | phosphor/total ratio of AMPKα, uninduced = 100% (AMPKα, pAMPKα (T172); 100 nM, untreated induced 170%): 130% | pAMPKα level (phosphor/total ratio of AMPKα), uninduced = 100% (AMPKα, pAMPKα (T172); 100 nM, no AICAR, untreated induced 134%): 110% | IC50 at 24 h [1]: > 100 µM | polyQ aggregation [3, 6]: 4.0% | aggregation ([3]; 100 nM, NRF2 shRNA): 5.5% | reduction of aggregation ([3]; 100 nM): 18–20% | polyQ aggregation [3, 7]: 3.6–3.7% | IC50 at 24 h [2]: > 100 µM | BAX protein level, uninduced = 100% (BAX): 103% | TBP/Q79-GFP aggregation (untreated cells = 100%) ([4]; 10 nM–10 μM, significantly better than SAHA 100 nM (82%)): 74–76% | pCREB/CREB (phosphor/total ratio), uninduced = 100% (CREB, pCREB (S133)): 110% | pCREB level, scrambled shRNA uninduced = 100% (CREB, pCREB (S133)): 107–112% | neurite outgrowth [5, 8]: 21.6 μm | neurite outgrowth [5, 9]: 17.8–18.1 μm | increased neurite outgrowth [5, 10]: 19−22% | neurite outgrowth [5, 11]: 25.1–25.6 μm | neurite outgrowth [5, 12]: 23.0–23.6 μm | neurite outgrowth [5, 13]: 23.8–24.6 μm

COc1ccc(O)c(/C=C/C(=O)c2ccccc2)c1 [LM-006]
IC50 at 24 h [1]: 56 µM | IC50 at 24 h [2]: 47 µM

NC(=O)c1ncn([C@@H]2O[C@H](CO)[C@@H](O)[C@H]2O)c1N [AICAR, 5-aminoimidazole-4-carboxamide 1-β-D-ribofuranoside]
pAMPKα level, uninduced = 100% (AMPKα, pAMPKα (T172); AICAR 0.1 mM alone, without AICAR 134%): 160% | aggregation ([3]; AICAR 0.1 mM alone, no treatment 4.6%): 5.2% | neurite outgrowth ([5]; AICAR 0.1 mM alone, SH-SY5Y cells, no treatment 19.6 μm): 17.2 μm

Cc1ccc(/C=C/C(=O)c2c(O)c3ccccc3oc2=O)cc1 [LM-016]
IC50 at 24 h [1]: > 100 µM | IC50 at 24 h [2]: > 100 µM

C=CC(C)(C)c1cc(/C=C/C(=O)c2ccc(O)cc2)c(OC)cc1O [licochalcone A, reference compound]
NRF2 protein level, uninduced = 100% (NRF2): 96–100% | NRF2 level, scrambled shRNA uninduced = 100% (NRF2): 84–93% | GADD45B protein level, uninduced = 100% (GADD45B): 104–105% | IC50 at 24 h ([1]; uninduced TBP/Q79-GFP SH-SY5Y cells, MTT, compounds 0.1−100 μM for 24 h, read-out: IC50 cytotoxicity): 57 µM | polyQ aggregation [3, 6]: 4.9% | aggregation ([3]; 100 nM, NRF2 shRNA): 5.5% | reduction of aggregation ([3]; 100 nM): 18–20% | polyQ aggregation [3, 7]: 3.6–3.7% | IC50 at 24 h ([2]; uninduced TBP/Q79-GFP 293 cells, MTT, compounds 0.1−100 μM for 24 h, read-out: IC50 cytotoxicity): 53 µM | BAX protein level, uninduced = 100% (BAX): 103% | pCREB/CREB (phosphor/total ratio), uninduced = 100% (CREB, pCREB (S133)): 110% | pCREB level, scrambled shRNA uninduced = 100% (CREB, pCREB (S133)): 107–112% | neurite outgrowth [5, 8]: 18.4 μm | neurite outgrowth [5, 9]: 17.8–18.1 μm | increased neurite outgrowth [5, 10]: 19−22% | neurite outgrowth [5, 11]: 25.1–25.6 μm | neurite outgrowth [5, 12]: 23.0–23.6 μm | neurite outgrowth [5, 13]: 23.8–24.6 μm

O=C(CCCCCCC(=O)Nc1ccccc1)NO [SAHA, suberoylanilide hydroxamic acid, reference compound]
TBP/Q79-GFP aggregation (untreated cells = 100%) ([4]; 100 nM, Dox + oxaliplatin 6 days): 82%

COc1ccc(C(=O)/C=C/c2cc(Br)ccc2O)cc1 [LM-004]
IC50 at 24 h [1]: 54 µM | IC50 at 24 h [2]: 45 µM
